Like-named read-outs stand apart in the source and are kept apart here.
Experiments:
[1] = system: female Sprague-Dawley rats, oxazolone (OX) contact dermatitis; experiment: In Vivo Inflammation Assay (oxazolone contact dermatitis model); set-up: key to Inflammation Assay Glucose Effect / GL *: +: the glucose level increased compared to vehicle; −: the glucose level decreased compared to vehicle; settings: for Inflammation Assay Glucose Effect / Inflammation Assay Anti-inflammatory Effect: rat; for Inflammation Assay Glucose Effect: glucose level compared to vehicle; for Inflammation Assay Anti-inflammatory Effect: relative to control compound; for GL *: glucose effect
Description: In Vivo Inflammation Assay
Intact adult (6 month old) female Sprague-Dawley rats are used in the oxazolone (OX) contactdermatitis model. Rats were sensitized on the ventral abdomen with OX on Day 0. On Days 7 and 9, a randomly-selected ear was challenged (same ear each time) with OX; the other was treated with vehicle. Daily treatment begun on Day 7 and continued for 7d with test compounds at different doses and 1.3 mpk 6-methlyprednisolone or 0.1 mpk DEX as positive controls. The thickness of both ears are measured on Days 11 and 14. Necropsy occurred on Day 14. The rat is first weighed, then anesthetized in a CO2 chamber until near death. Approximately 5 ml whole blood is obtained by cardiac puncture. The rat is then examined for certain signs of death and completeness. Tissues are dissected in a highly stylized fashion. Then the following endpoints were evaluated: a) inhibiting ear inflammation induced by oxazalone, b) raising serum insulin, c) reducing serum ACTH, d) reducing spleen weight, e) reducing skin thickness, f) reducing body weight, g) increasing expression of bone-related genes with potential relationship to negative glucocorticoid effects on bone; e) changes in molecular markers that correlate with skin inflammation, skin thinning, muscle atrophy and glucose metabolism in liver. All blood samples were collected between 1330-1530 hours, ˜4-5 hrs after the last compound treatment.
Primary data for this assay are left and right ear thickness. Inter-ear thickness difference (etd) is used for the estimating the level of inflammation and effectiveness of the compounds is determined by their ability to reduce the increase the thickness of the inflamed ear. Back of the rat skin thickness, spleen weight, serum insulin as well as the effects of gcs on the expression of molecular markers in skin inflammation, skin atrophy, muscle atrophy and glucose metabolism in liver are measured. Data are analyzed by anova plus fisher plsd post-hoc test to identify intergroup differences.

GR = target: T1, GR (Homo sapiens, UniProt P04150); experiment: GR Ligand Binding Assay (GR BIND), HeLa cell lysate, 3H-DEX; set-up: endogenous in cells; host or cells: HeLa (ATCC) cell lysate supernatant
T1 sequence (P04150 1-777): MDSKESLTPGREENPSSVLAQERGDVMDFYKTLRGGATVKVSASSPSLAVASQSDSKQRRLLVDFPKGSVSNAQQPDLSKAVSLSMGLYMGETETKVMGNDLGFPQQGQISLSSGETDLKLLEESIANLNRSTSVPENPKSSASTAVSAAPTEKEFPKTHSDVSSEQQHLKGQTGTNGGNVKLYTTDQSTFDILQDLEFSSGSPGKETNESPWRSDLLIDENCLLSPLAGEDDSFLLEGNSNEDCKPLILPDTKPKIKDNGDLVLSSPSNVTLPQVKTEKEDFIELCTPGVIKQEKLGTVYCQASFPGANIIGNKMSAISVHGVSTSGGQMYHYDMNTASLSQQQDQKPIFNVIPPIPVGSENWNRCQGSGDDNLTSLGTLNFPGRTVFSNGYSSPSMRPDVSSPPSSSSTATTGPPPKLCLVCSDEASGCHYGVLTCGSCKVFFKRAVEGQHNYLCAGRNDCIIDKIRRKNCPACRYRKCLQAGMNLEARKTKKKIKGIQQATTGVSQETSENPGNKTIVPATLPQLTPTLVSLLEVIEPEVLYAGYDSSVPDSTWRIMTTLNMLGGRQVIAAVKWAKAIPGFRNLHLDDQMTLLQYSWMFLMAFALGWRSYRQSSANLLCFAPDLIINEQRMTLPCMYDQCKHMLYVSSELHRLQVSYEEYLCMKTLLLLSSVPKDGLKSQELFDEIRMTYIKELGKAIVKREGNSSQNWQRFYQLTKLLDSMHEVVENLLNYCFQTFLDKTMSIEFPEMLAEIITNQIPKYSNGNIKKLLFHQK
Description: Binding Buffer: TEGM (10 mM Tris-HCl, 1 mM EDTA, 10% glycerol, 1 mM beta-mecaptoethanol, 10 mM Sodium Molybdate, pH 7.2)
Phenol red-free Trypsin-EDTA is diluted in the same PBS 1:10. The cell layers are rinsed with 1× Trypsin, extra Trypsin is poured out, and the cell layers are incubated at 37° C. for ˜2 min. The flask is tapped and checked for signs of cell detachment. Once the cells begin to slide off the flask, the complete media is added. The cells are counted at this point, then diluted to the appropriate concentration and split into flasks or dishes for further culturing (Usually 1:3 to 1:6 dilution).
The cell pellet is washed twice with TEGM (10 mM Tris-HCl, 1 mM EDTA, 10% glycerol, 1 mM beta-mercaptoethanol, 10 mM Sodium Molybdate, pH 7.2). […] The cell suspension is snap frozen in liquid nitrogen or ethanol/dry ice bath and transferred to −80° C. freezer on dry ice. Before setting up the binding assay, the frozen samples are left on ice-water to just thaw (˜1 hr). Then the samples are centrifuged at 12,500 g to 20,000 g for 30 min at 4° C. The supernatant is used to set-up assay right away. If using 50 μL of supernatant, the test compound can be prepared in 50 μL of the TEGM buffer.
1×TEGM buffer is prepared, and the isotope-containing assay mixture is prepared in the following order: EtOH (2% final concentration in reaction), 3H-DEX (Amersham Biosciences) and 1×TEGM. [e.g. For 100 samples, 200 μL (100×2) of EtOH+4.25 μL of 1:10 3H-Dex stock+2300 μL (100×23) 1×TEGM]. The compound is serially diluted, e.g., if starting final conc. is 1 μM, and the compound is in 25 μL of solution, for duplicate samples, 75 μL of 4×1 μM solution is made and 3 μL of 100 μM is added to 72 μL of buffer, and 1:5 serial dilution.
25 μL of 3H-DEX (6 nM) trace and 25 μl, compound solution are first mixed together, followed by addition of 50 μL receptor solution. The reaction is gently mixed, spun briefly at about 200 rpm and incubated at 4° C. overnight. 100 μL of 50% HAP slurry is prepared and added to the incubated reaction which is then vortexed and incubated on ice for 5 to 10 minutes. The reaction mixture is vortexed twice more to resuspend HAP while incubating reaction. The samples in 96-well format are then washed in wash buffer using The FilterMate™ Universal Harvester plate washer (Packard). The washing process transfers HAP pellet containing ligand-bound expressed receptor to Unifilter-96 GF/B filter plate (Packard). The HAP pellet on the filter plate is incubated with 50 μL of MICROSCINT (Packard) scintillint for 30 minutes before being counted on the TopCount microscintillation counter (Packard). IC50s are calculated using DEX as a reference.

[2] = HeLa cell lysate, 3H-DEX, read-out: GR BIND Ki
[3] = Table 4, literature compounds, read-out: GR BIND

Compound	Inflammation Assay Glucose Effect [1]	Inflammation Assay Anti-inflammatory Effect [1]	Ki (GR; [2])	other results
Cc1cccnc1C(O)C[C@]1(O)CCC2=Cc3c(cnn3-c3ccc(F)cc3)C[C@@]21C (single isomer, unassigned) [Example 1a]	−	+ (the anti-inflammatory activity was equal to or greater than 40% of the effect generated by the control compound)	6.7 nM	
Cc1cccnc1C(O)C[C@]1(O)CCC2=Cc3c(cnn3-c3ccc(F)cc3)C[C@@]21C (single isomer, unassigned) [Example 1b]	+		3.9 nM	
C[C@]12Cc3cnn(-c4ccc(F)cc4)c3C=C1CC[C@@]2(O)CC(O)c1ccccn1 (single isomer, unassigned) [Example 2a]	−	+ (the anti-inflammatory activity was equal to or greater than 40% of the effect generated by the control compound)	11.7 nM	
C[C@]12Cc3cnn(-c4ccc(F)cc4)c3C=C1CC[C@@]2(O)CC(O)c1ccccn1 (single isomer, unassigned) [Example 2b]	−	+ (the anti-inflammatory activity was equal to or greater than 40% of the effect generated by the control compound)	6.4 nM	
C[C@]12Cc3cnn(-c4ccc(F)cc4)c3C=C1CC[C@@]2(O)CC(O)c1cc(C(F)(F)F)ccn1 (single isomer, unassigned) [Example 5a]			2.6 nM	
C[C@]12Cc3cnn(-c4ccc(F)cc4)c3C=C1CC[C@@]2(O)CC(O)c1cc(C(F)(F)F)ccn1 (single isomer, unassigned) [Example 5b]			4.3 nM	
C[C@]12Cc3cnn(-c4ccc(F)cc4)c3C=C1CC[C@@]2(O)CC(O)c1ccc(F)cn1 (single isomer, unassigned) [Example 7a]			10.8 nM	
C[C@]12Cc3cnn(-c4ccc(F)cc4)c3C=C1CC[C@@]2(O)CC(O)c1ccc(F)cn1 (single isomer, unassigned) [Example 7b]			4.8 nM	
C[C@]12Cc3cnn(-c4ccc(F)cc4)c3C=C1CC[C@@]2(O)CC(O)c1cc(Cl)ccn1 (single isomer, unassigned) [Example 8a]	+	+ (the anti-inflammatory activity was equal to or greater than 40% of the effect generated by the control compound)	5 nM	
C[C@]12Cc3cnn(-c4ccc(F)cc4)c3C=C1CC[C@@]2(O)CC(O)c1cc(Cl)ccn1 (single isomer, unassigned) [Example 8b]	+	+ (the anti-inflammatory activity was equal to or greater than 40% of the effect generated by the control compound)	2.1 nM	
C[C@]12Cc3cnn(-c4ccc(F)cc4)c3C=C1CC[C@@]2(O)CC(O)c1cc(Br)ccn1 (single isomer, unassigned) [Example 10a]			3.4 nM	
C[C@]12Cc3cnn(-c4ccc(F)cc4)c3C=C1CC[C@@]2(O)CC(O)c1cc(Br)ccn1 (single isomer, unassigned) [Example 10b]			1.7 nM	
C[C@]12Cc3cnn(-c4ccc(F)cc4)c3C=C1CC[C@@]2(O)C#Cc1ccccc1 [Ex. 1 WO 04/075840 A2, reference compound]				GL * ([1]; Table 4, literature compounds): −; Ki (GR; [3]): 1.18 nM
C[C@]12Cc3cnn(-c4ccc(F)cc4)c3C=C1CCC[C@@H]2[C@@H](O)Cc1ccccc1 [Ex. 22 WO 03/086294 A2, reference compound]				GL * ([1]; Table 4, literature compounds): −; Ki (GR; [3]): 1.26 nM
C[C@]12Cc3cnn(-c4ccc(F)cc4)c3C=C1CCC[C@@H]2[C@@H](O)CCc1ccccc1 [Ex. 30 WO 03/086294 A2, reference compound]				GL * ([1]; Table 4, literature compounds): −; Ki (GR; [3]): 1.21 nM
C[C@]12Cc3cnn(-c4ccc(F)cc4)c3C=C1CCC[C@@H]2[C@@H](O)c1ccccc1 [Ex. 35 WO 03/86294 A2, reference compound]				GL * ([1]; Table 4, literature compounds): −; Ki (GR; [3]): 1.17 nM
CO[C@@]1(CCc2ccccc2Cl)CCC2=Cc3c(cnn3-c3ccc(F)cc3)C[C@@]21C [Ex. 103 WO 04/075840 A2, reference compound]				AI* ([1]; Table 4, literature compounds, anti-inflammatory effect): + (the anti-inflammatory activity was equal to or greater than 40% of the effect generated by the control compound); GL * ([1]; Table 4, literature compounds): +; Ki (GR; [3]): 0.23 nM
COc1ccnc(C(O)C[C@]2(O)CCC3=Cc4c(cnn4-c4ccc(F)cc4)C[C@@]32C)c1 (stereo partly drawn) [Example 3, (4αS,5R)-1-(4-fluorophenyl)-5-[2-hydroxy-2-(4-methoxypyridin-2-yl)ethyl]-4α-methyl-1,4,4α,5,6,7-hexahydrocyclopenta[f]indazol-5-ol]	+	+ (the anti-inflammatory activity was equal to or greater than 40% of the effect generated by the control compound)	4.4 nM	
C[C@]12Cc3cnn(-c4ccc(F)cc4)c3C=C1CC[C@@]2(O)CC(O)c1ncccc1F (stereo partly drawn) [Example 4, (4αS,5R)-1-(4-fluorophenyl)-5-[2-(3-fluoropyridin-2-yl)-2-hydroxyethyl]-4α-methyl-1,4,4α,5,6,7-hexahydrocyclopenta[f]indazol-5-ol]			7.2 nM	
C[C@]12Cc3cnn(-c4ccc(F)cc4)c3C=C1CC[C@@]2(O)CC(O)c1ccc(C(F)(F)F)cn1 (stereo partly drawn) [Example 6, (4αS,5R)-1-(4-fluorophenyl)-5-{2-hydroxy-2-[5-(trifluoromethyl)pyridin-2-yl]ethyl}-4α-methyl-1,4,4α,5,6,7-hexahydrocyclopenta[f]indazol-5-ol]			2.7 nM	

From patent US20120214846A1, “HEXAHYDROCYCLOPENTYL[F]INDAZOLE PYRIDYL ETHANOLS AND DERIVATIVES THEREOF AS SELECTIVE GLUCOCORTICOID RECEPTOR MODULATORS” (MERCK SHARP & DOHME CORP, priority 2009, published 2012)
